Results published in publication PMC9143880, “Improving Antimicrobial Activity and Physico-Chemical Properties by Isosteric Replacement of 2-Aminothiazole with 2-Aminooxazole” (Pharmaceuticals, 2022).
Converted amounts (≈) assume the structure as drawn. Like-named read-outs stand apart in the source and are kept apart here.

Legend:
[1] = tested on: M. avium DSM 44156 (ATCC 25291); test: Antimycobacterial MIC, microdilution broth / resazurin; format: cell-based, Mycobacterium avium; conditions: Mycobacterium avium, read-out: MIC M. avium
[2] = tested on: Candida albicans CCM 8320 (ATCC 24433); test: Antifungal microdilution broth (EUCAST); conditions: Candida albicans, 24 h, read-out: MIC CA
[3] = tested on: Staphylococcus aureus subsp. aureus CCM 4223 (ATCC 29213); test: Antibacterial microdilution broth (EUCAST); format: cell-based; conditions: Staphylococcus aureus
[4] = RP-UHPLC lipophilicity parameter log k’w; format: physicochemical; conditions: for log k’w: RP-UHPLC, acetonitrile/water, log k extrapolated to 0% acetonitrile; for logkw: experimental lipophilicity parameter
How it was run: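 log k’w from isocratic RP-UHPLC with an acetonitrile/water mobile phase, using 40, 45 and 50% acetonitrile for subtype I and 20, 30 and 40% for subtype II. A single run was made at each mobile-phase composition.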

[5] = tested on: Pseudomonas aeruginosa CCM 3955 (ATCC 27853); test: Antibacterial microdilution broth (EUCAST); format: cell-based; conditions: Pseudomonas aeruginosa
[6] = tested on: Staphylococcus aureus subsp. aureus (MRSA) CCM 4750 (ATCC 43300); test: Antibacterial microdilution broth (EUCAST); format: cell-based; conditions: Staphylococcus aureus
[7] = tested on: Mtb H37Rv CNCTC My 331/88 (ATCC 27294); test: microbe, parasite or virus in culture; format: cell-based; conditions: Mycobacterium tuberculosis, read-out: MIC Mtb H37Rv
[8] = tested on: Acinetobacter baumannii DSM 30007 (ATCC 19606); test: Antibacterial microdilution broth (EUCAST); format: cell-based; conditions: Acinetobacter baumannii
HepG2 cells = test: HepG2 cytotoxicity screening (CellTiter 96); format: cell-based, human; conditions: for IC50: Homo sapiens, HepG2, 24 h, 24 h incubation, CellTiter 96, * above highest tested concentration, ** limited by insolubility in medium; for SI: SI = IC50 (µM) HepG2 / MICH37Ra (µM)
[9] = tested on: Trichophyton interdigitale CCM 8377 (ATCC 9533); test: Antifungal microdilution broth (EUCAST); conditions: Trichophyton interdigitale, 72 h, read-out: MIC TI
[10] = tested on: Mtb MATI (MDR clinical isolate); test: microbe, parasite or virus in culture; format: cell-based; conditions: Mycobacterium tuberculosis, read-out: MIC Mtb MATI
[11] = tested on: Aspergillus flavus CCM 8363; test: Antifungal microdilution broth (EUCAST); conditions: Aspergillus flavus, CCM8363, 24 h, read-out: MIC AFla
[12] = tested on: Candida krusei CCM 8271 (ATCC 6258); test: Antifungal microdilution broth (EUCAST); conditions: Pichia kudriavzevii, 24 h, read-out: MIC CK
[13] = tested on: M. kansasii DSM 44162 (ATCC 12478); test: Antimycobacterial MIC, microdilution broth / resazurin; format: cell-based; conditions: Mycobacterium kansasii, read-out: MIC M. kansasii
[14] = tested on: Staphylococcus epidermidis CCM 4418 (ATCC 12228); test: Antibacterial microdilution broth (EUCAST); format: cell-based; conditions: Staphylococcus epidermidis
[15] = tested on: Enterococcus faecalis CCM 4224 (ATCC 29212); test: Antibacterial microdilution broth (EUCAST); format: cell-based; conditions: Enterococcus faecalis
[16] = tested on: Mycobacterium tuberculosis H37Ra ITM-M006710 (ATCC 9431); test: Antimycobacterial MIC, microdilution broth / Alamar Blue (resazurin); format: cell-based; conditions: Mycobacterium tuberculosis
[17] = tested on: Candida parapsilosis CCM 8260 (ATCC 22019); test: Antifungal microdilution broth (EUCAST); conditions: Lodderomyces parapsilosis, 24 h, read-out: MIC CP
[18] = tested on: Aspergillus fumigatus ATCC 204305; test: Antifungal microdilution broth (EUCAST); conditions: Aspergillus fumigatus, ATCC204305, 24 h, read-out: MIC AF
[19] = tested on: Candida tropicalis CCM 8264 (ATCC 750); test: Antifungal microdilution broth (EUCAST); conditions: Candida tropicalis, 24 h, read-out: MIC CT
[20] = tested on: Escherichia coli CCM 3954 (ATCC 25922); test: Antibacterial microdilution broth (EUCAST); format: cell-based; conditions: Escherichia coli
[21] = tested on: Mtb IZAK (MDR clinical isolate); test: microbe, parasite or virus in culture; format: cell-based; conditions: Mycobacterium tuberculosis, read-out: MIC Mtb IZAK
[22] = tested on: Lichtheimia corymbifera CCM 8077; test: Antifungal microdilution broth (EUCAST); conditions: Lichtheimia corymbifera, CCM8077, 24 h, read-out: MIC LC
[23] = tested on: M. smegmatis DSM 43465 (ATCC 607); test: Antimycobacterial MIC, microdilution broth / resazurin; format: cell-based; conditions: Mycolicibacterium smegmatis, read-out: MIC M. smegmatis
[24] = tested on: M. aurum DSM 43999 (ATCC 23366); test: as above; format: cell-based; conditions: Mycolicibacterium aurum, read-out: MIC M. aurum
[25] = tested on: Klebsiella pneumoniae CCM 4415 (ATCC 10031); test: Antibacterial microdilution broth (EUCAST); format: cell-based; conditions: internal quality control, 24 h
M. tuberculosis H37Rv = conditions: whole cell, cited from earlier work
[26] = Kinetic water solubility (water-induced precipitation of DMSO stock, UHPLC); format: physicochemical; conditions: 18 °C, water
From the text: A low value of log P is often presumed to be related to increased water solubility, although this might not always be the case since log P is a measure of relative solubility of the compound in the lipophilic and hydrophilic solvents (at equilibrium). Therefore, to be sure, we tested whether the lowered log k’w (related to log P) of the oxazole derivatives would also translate to increased solubility in water in a few representative derivatives. The water solubility of selected compounds was assessed by the kinetic method based on water-induced precipitation of DMSO stock solutions of tested compounds due to reasons described by Azzali and colleagues.
Water solubility was investigated using the kinetic solubility method. The sample (1 mg) was dissolved in the smallest amount of DMSO needed, 25 or 50 μL for subtype I and subtype II compounds, respectively. The samples were mixed at 18 °C in a thermomixer (Thermomixer comfort, Eppendorf, Hamburg, Germany) for 1 h. After mixing, the samples were diluted with water to a concentration of 500 μM, and the precipitate was observed. The sample was filtered through a 0.22 μm filter and diluted to be evaluated by UHPLC. The log S parameter was calculated from the experimental solubility in molar concentration. The samples were measured using the same instrument, software, and column as used in the purity evaluation.

[27] = 24h incubation, read-out: MIC SA
[28] = 72h incubation, read-out: MIC PA
[29] = 24h incubation, read-out: MIC MRSA
[30] = 24h incubation, read-out: MIC AB
[31] = 24h incubation, read-out: MIC SE
[32] = 24h incubation, read-out: MIC EF
[33] = 120 h, Middlebrook 7H9, resazurin after 120 h, read-out: Mtb H37Ra MIC
[34] = recalculated from µg/mL, read-out: MICH37Ra
[35] = 24h incubation, read-out: MIC EC
[36] = internal quality control, 95% growth inhibition, 530 nm, 24 h, read-out: MIC (spectrophotometric detection)
[37] = internal quality control, naked eye, 24 h, read-out: MIC (visual detection)

SMILES	MIC ([1]; resazurin after 96 h) [µg/mL]	MIC [2] [µM]	MIC [3, 27] [µM]	log k’w [4]	logkw [4]	MIC [5, 28] [µM]	MIC [6, 29] [µM]	MIC [7] [µg/mL]	MIC [8, 30] [µM]	IC50 (HepG2 cells) [µM]	SI (HepG2 cells)	MIC [9] [µM]	MIC [10] [µg/mL]	melting point [°C]	MIC [11] [µM]	MIC [12] [µM]	MIC ([13]; resazurin after 96 h) [µg/mL]	MIC [14, 31] [µM]	MIC [15, 32] [µM]	MIC [16, 33] [µg/mL]	further results
Cc1cc(C(=O)Nc2ncco2)cc(Cl)n1 [Compound 7b]	3.91 (≈ 16.5 µM)	125 (≈ 29.7 µg/mL)	62.5	1.430	1.43	> 500	125	6.25 (≈ 26.3 µM)	500	959	>58.3	125 (≈ 29.7 µg/mL)	3.13 (≈ 13.2 µM)	149 to 153	> 500	500 (≈ 119 µg/mL)	7.81 (≈ 32.9 µM)	125	500	< 3.91	MIC [16, 34]: < 16.5 µM; MIC [17]: 500 µM (≈ 119 µg/mL); MIC [18]: 250 µM (≈ 59.4 µg/mL); MIC [19]: > 500 µM; MIC [20, 35]: 250 µM; MIC [21]: 3.13 µg/mL (≈ 13.2 µM); MIC [22]: 125 µM (≈ 29.7 µg/mL); MIC ([23]; resazurin after 48 h): 7.81 µg/mL (≈ 32.9 µM); MIC ([24]; resazurin after 72 h): 3.91 µg/mL (≈ 16.5 µM)
CNC(C)C1CCC(N)C(OC2C(N)CC(N)C(OC3OCC(C)(O)C(NC)C3O)C2O)O1 (stereo not drawn) [gentamicin, reference compound]	–	–	–	–	–	–	–	–	–	–	–	–	–	–	–	–	–	–	–	–	MIC [3, 36]: 1 µg/mL; MIC [3, 37]: 0.5 µg/mL; MIC [5, 36]: 0.5 µg/mL; MIC [5, 37]: 0.5 µg/mL; MIC [6, 36]: > 8 µg/mL; MIC [6, 37]: > 8 µg/mL; MIC [8, 36]: 8 µg/mL; MIC [8, 37]: 8 µg/mL; MIC ([25]; 95% growth inhibition, 530 nm, read-out: MIC (spectrophotometric detection)): 0.5 µg/mL (≈ 1.05 µM); MIC ([25]; naked eye, read-out: MIC (visual detection)): 0.5 µg/mL (≈ 1.05 µM); MIC [14, 36]: 0.0625 µg/mL; MIC [14, 37]: 0.0625 µg/mL; MIC [15, 36]: > 8 µg/mL; MIC [15, 37]: > 8 µg/mL; MIC [20, 36]: 1 µg/mL; MIC [20, 37]: 1 µg/mL
O=C(Nc1nc(-c2ccc(F)cc2)cs1)c1cncc(Cl)n1 [A]	–	–	–	–	–	–	–	–	–	–	–	–	–	–	–	–	–	–	–	–	MIC (M. tuberculosis H37Rv; recalculated to µM): 2.3 µM; MIC (M. tuberculosis H37Rv): 0.78 µg/mL
O=C(Nc1ncco1)c1ccnc(Cl)c1 [Compound 6b]	–	31.2 (≈ 6.99 µg/mL)	250	1.136	1.136	> 500	62.5	6.25 (≈ 27.9 µM)	62.5	664	47.5	125 (≈ 28 µg/mL)	3.13 (≈ 14 µM)	158 to 162	500 (≈ 112 µg/mL)	250 (≈ 55.9 µg/mL)	–	62.5	500	3.12	MIC ([1]; 96 h): 3.12 µg/mL (≈ 14 µM); MIC ([13]; 96 h): 3.12 µg/mL (≈ 14 µM); MIC [16, 34]: 14 µM; MIC [17]: 250 µM (≈ 55.9 µg/mL); solubility ([26]; water (DMSO stock diluted with water), kinetic from dmso stock, read-out: solubility in water): > 500 µM; solubility ([26]; kinetic method, DMSO stock diluted to 500 μM): no precipitate; MIC [18]: 125 µM (≈ 28 µg/mL); MIC [19]: 500 µM (≈ 112 µg/mL); MIC [20, 35]: 62.5 µM; MIC [21]: 3.13 µg/mL (≈ 14 µM); MIC [22]: 62.5 µM (≈ 14 µg/mL); MIC ([23]; 48 h): 6.25 µg/mL (≈ 27.9 µM); MIC ([24]; 72 h): 3.12 µg/mL (≈ 14 µM)
O=C(O)c1cn(C2CC2)c2cc(N3CCNCC3)c(F)cc2c1=O [CIP, ciprofloxacin, reference compound]	0.25 to 0.5 (≈ 0.754 to 1.51 µM)	–	–	–	–	–	–	0.2 (≈ 0.604 µM)	–	–	–	–	–	–	–	–	0.25 (≈ 0.754 µM)	–	–	0.25	MIC ([23]; resazurin after 48 h): 0.125 µg/mL (≈ 0.377 µM); MIC ([24]; resazurin after 72 h): 0.0156 µg/mL (≈ 0.0472 µM)
